Assay results reported in US4250259A, “Microbiological production of ketones from C3 -C6 secondary alcohols” (priority 1979, dated 1981).
Entries after “also recorded” stand apart in the source; their conditions may differ.

What was measured:
[1] = tested on: purified secondary alcohol dehydrogenase; experiment: inhibition of purified yeast SADH; format: biochemical, Pichia sp. NRRL Y-11,328; conditions: primary alcohols tested at 10^-3 M
Method: Large scale cultures of Pichia sp. NRRL Y-11,328 were grown with aeration at 30° C. in a 14-liter New Brunswick f fermentor in a mineral salt medium containing methanol (0.4%, v/v) as the sole carbon source. The cells (200 g., wet weight) were suspended in […] sodium phosphate buffer, pH 7.0, containing 1 mM dithiothreitol (buffer A), and crude extracts were prepared as described previously. To the crude extracts, 18 ml. of protamine sulfate solution [2% solution in 0.1 M tris (hydroxymethyl) aminomethane (tris) base] was added dropwise with continuous stirring. After standing for 30 min., the extracts were centrifuged at 20,000× g. for 60 min. The supernatant solution was fractionated with solid ammonium sulfate. Extracts were brought to 50% of saturation with respect to ammonium sulfate by addition of 313 g. of the salt per liter of extract. Precipitated proteins was removed by centrifugation, and 137 g. of ammonium sulfate was added per liter of the supernatant liquid to bring it to 70% of saturation. Material precipitating between 50 and 70% of saturation was collected by centrifugation and dissolved in buffer A. This preparation was dialyzed overnight against buffer A, and the dialyzed material was applied to a DEAE-cellulose column (5×40 cm) that had been equilibrated with buffer A. The sample was washed with 200 ml. of buffer A and eluted with 2 liters of buffer A that contained NaCl in a linear gradient running from a concentration of 0 to 0.5 M. Fractions of 15 ml. were collected. Fractions containing secondary alcohol dehydrogenase activity were pooled and were termed DEAE-cellulose eluate. The DEAE-cellulose eluate was concentrated by ammonium sulfate fractionation.
Secondary alcohol dehydrogenase activity was measured spectrophotometrically at 340 nm with a NAD^+ as an electron acceptor. The reaction mixture, in a total 3.0 ml., contained 50 mM phosphate buffer, pH 8.0, 5 μmoles NAD^+, crude extracts, and substrate. The reactions were started by addition of 100 μl of 0.1 M substrate and the rate of NAD^+ reduction was measured. Protein concentration was determined by the method of Lowry et al.
Various primary alcohols not oxidized by secondary alcohol dehydrogenase were tested as potential inhibitors of enzyme activity.

[2] = tested on: Methylobacterium organophilum XX; experiment: n-alkanes to methyl ketones by resting cell suspensions (Table I); format: cell-based; conditions: cells grown on methane; 30° C.
Method: (§1) The pH of the nutrient medium was adjusted to 7.0 by the addition of acid or base and 50 ml. samples of the nutrient medium were charged into a plurality of 300 ml. shaker flasks. […] The isolates had been maintained on methanol (0.4% V/V) agar plates or on agar plates under an atmosphere of methane and air having a 1:1 V/V gas ratio which had been transferred every two weeks. For growth on methanol, the medium was supplemented with 0.4% methanol. For growth on methane, the gaseous phase of the inoculated flasks was replaced with a gas mixture comprised of methane and air having a ratio of 1:1 on a V/V basis. The inoculated flasks were sealed air-tight and were incubated on a rotary shaker of orbital radius 2.5 cm. at 250 rpm and at 30° C. for two days until turbidity in the medium had developed. The cells were harvested by centrifugation at 10,000×g. at 4° C. for 30 minutes. The cell pellet was washed twice with a 0.05 M phosphate buffer at a pH of 7.0 (containing 0.02 M MgCl2). The washed cells were then suspended in a 0.05 M phosphate buffer at pH 7.0.
(§2) A 0.5 ml. sample of each washed cell suspension (2 mg. cells) was put into 10 ml. vials at 4° C. which were sealed with a rubber cap. The gaseous phase of the vials was removed with vacuum and then was replaced with a gas mixture of the substrate reactant (i.e., alkane or secondary alcohol) and oxygen at a 1:1 V/V ratio. (In the case of a liquid substrate, i.e., secondary alcohol, 10 μl of the substrate was put in the 10 ml. vials). The vials were then incubated at 30° C. on a rotary shaker at 300 rpm. Samples of product (1-3 μl) were withdrawn periodically with a microsyringe and the products were analyzed by gas chromatography (ionization flame detector column).

[3] = tested on: Methylocystis parvus OBBP (NRRL B-11,198); experiment: as above; format: cell-based; conditions: cells grown on methane; 30° C.
Method: as §1, §2

[4] = tested on: Methylomonas methanica SI (NRRL B-11,199); experiment: as above; format: cell-based; conditions: cells grown on methane; 30° C.
Method: as §1, §2

[5] = tested on: Methylobacter capsulatus Y (NRRL B-11,201); experiment: as above; format: cell-based; conditions: cells grown on methane; 30° C.
Method: as §1, §2

[6] = tested on: Methylosinus trichosporium OB3b (NRRL B-11,196); experiment: as above; format: cell-based; conditions: cells grown on methane; 30° C.
Method: as §1, §2

[7] = tested on: Methylococcus capsulatus Texas (ATCC 19069); experiment: as above; format: cell-based; conditions: cells grown on methane; 30° C.
Method: as §1, §2

[8] = tested on: Methylococcus capsulatus (Texas, ATCC 19,069); experiment: n-alkanes to secondary alcohols by cell suspensions (Table XVI); format: cell-based; conditions: Growth Substrate Methane
Source text: (§3) Both cell suspensions (particulate fraction) and cell-free particulate fraction of methane-grown methylotroph microorganisms are capable of catalyzing the conversion of C3 -C6 n-alkanes to the corresponding alcohols including secondary alcohols. The conditions for preparing the cell suspensions or the cell-free particulate fractions from methane-grown methylotroph microorganisms is the same as described above. The cell-free particulate fraction requires the presence of oxygen and NADH as an electron donor. […] Tables XVI and XVII show the conversion of C3 -C6 n-alkanes to the corresponding secondary alcohols using cell suspensions and cell-free particulate fractions, respectively, of methane-grown methylotroph microorganisms.
(§4) ^(a) The product secondary alcohols were identified and estimated by […]

[9] = tested on: Methylobacterium sp. (CRL-26, NRRL-B-11,208); experiment: as above; format: cell-based; conditions: Growth Substrate Methane
Source text: as §3, §4

[10] = tested on: Methylosinus trichosporium (OB3b, NRRL-B-11,196); experiment: as above; format: cell-based; conditions: Growth Substrate Methane
Source text: as §3, §4

[11] = tested on: cell-free SADH system; experiment: cofactor requirement of the cell-free SADH systems; format: biochemical; conditions: cell-free systems tested
Method: To prepare the cell-free secondary alcohol dehydrogenase (SADH) system, the washed cells were disrupted with a Wave Energy Ultrasonic Oscillator, Model W201 (Wave Energy System, Inc., Newtown, Pa.) and centrifuged at 20,000×g. for 30 minutes. […] The enzyme activity was measured with a fluorescence spectrophotometer (Perkin Elmer, Model MPF 44A) by following the formation of reduced NAD (EX 340 nm, Em 460 nm). The formation of reduced NAD was also followed with an absorption spectrophotometer at 340 nm. The assay system (3 ml.) contained: potassium phosphate buffer pH 7.0; 150 μmol.; NAD 1 μmol.; a given amount of enzyme preparation; and secondary alcohol 10 μmol. The reaction was started by the addition of substrate. One unit of enzyme activity represents the reduction of one μmole NAD per minute. Protein concentrations were determined by the Lowry method (J. Biol. Chem., 193: 255-275 (1951)).

[12] = tested on: purified secondary alcohol dehydrogenase (SADH); experiment: inhibition of purified SADH by metal-chelating agents, thioreagents, metals; format: biochemical, Pseudomonas sp. ATCC 21439; conditions: for % inhibition of SADH activity: each inhibitor at a final concentration of 1 mM, measured spectrofluorometrically
Method: Secondary alcohol dehydrogenase (SADH) from an obligate methanol utilizer, Pseudomonas sp. ATCC 21439 was purified as follows. […] 0.05 M sodium phosphate buffer, pH 7.0 with 0.5 mM dithiothretol (buffer A) and were disrupted sonically (5×1 min.). The crude extract was separated by centrifugation. The crude extract was heat-treated at 50° C. in a water bath for 10 minutes. The resulting precipitate was removed by centrifugation. To the supernatant solution, 25 ml of protamine sulfate solution (2% solution in 0.1 M Tris base) was added dropwise with continuous stirring. After standing for 30 minutes, the extract was centrifuged. The supernatant solution was fractionated with solid ammonium sulfate. […] This DEAE-cellulose eluate was concentrated by ammonium sulfate fractionation. Material precipitating between 30 and 50% ammonium sulfate saturation was collected by centrifugation and dialyzed overnight against A. This fraction was further washed and filtered through an Amicon unit with XM 50 membrane. The concentrated fraction (6 ml) inside the Amicon unit was applied to an Affi-Gel Blue column (0.8 cm×18 cm) which had been equilibrated with buffer A for affinity chromatography. The column was washed overnight with buffer A (0.18 ml./min.) and then was eluted with buffer A containing 5 mM NAD. Each 1 ml. fraction was collected.
The purified secondary alcohol dehydrogenase enzyme (SADH) may be used directly for converting C3 -C6 secondary alcohols to the corresponding methyl ketones by the procedures described above; however, a source of NAD^+ must be added to the reaction medium. One can determine the NAD-linked secondary alcohol dehydrogenase activity with a fluorescence spectrophotometer (Perkin Elmer, Model MPF 44A) by following the formation of reduced NAD (Ex 340 nm, Em 460 nm). The assay system (3 ml.) will typically contain: sodium phosphate buffer pH 7.0, 150 μmol; NAD 1.0 μmol; a given amount of enzyme preparation; and 20 μmol secondary alcohol. The reaction is started by the addition of secondary alcohol. One unit of SADH enzyme activity represents the reduction of one nmole NAD per minute.
The effect of metal-chelating agents and thioreagents on the activity of the purified SADH enzyme were studied. […] The possibility of ethanol or n-propanol as an inhibitor was studied.

[13] = tested on: cell-free extracts of strain ATCC 21439; experiment: stoichiometry of production of 2-butanone from 2-butanol by cell-free extracts (Table IX); format: biochemical, Pseudomonas sp. ATCC 21,439; conditions: for NAD Consumed: fluorescence spectrophotometrically
Method: The reaction mixtures 3 ml (1.0 mg protein) were incubated at 30°
^(a) Determined gas chromatographically.
^(b) Determined fluorescence spectrophotometrically.
consumption of NAD was corrected.

[14] = tested on: cell suspensions of C1-utilizers; experiment: studies on production of 2-butanone from 2-butanol by cell suspensions of the strains tested; format: cell-based; conditions: for inhibition of production of 2-butanone from 2-butanol by cell suspensions: strains tested
Source text: The following summarizes tests conducted on the optimal conditions for the production of methyl ketones from C3 -C6 sec. alcohols.
The substrate specificity for the oxidation of C3 -C6 secondary alcohols by the strains of C1 -utilizers was studied.

[15] = tested on: purified secondary alcohol dehydrogenase; experiment: substrate specificity, electron acceptor and stoichiometry of purified yeast SADH
[16] = tested on: cell-free particulate fractions of methane-grown methylotrophs; experiment: inhibitors and electron donors of n-alkane conversion to sec. alcohols by cell-free particulate fractions; format: biochemical
Source text: The conditions for preparing the cell suspensions or the cell-free particulate fractions from methane-grown methylotroph microorganisms is the same as described above.

## c1c[nH]cn1 [imidiazole]
[1]
  inhibition of purified yeast secondary alcohol dehydrogenase activity: strongly inhibited

## O=[N+]([O-])[O-].[Ag+] [silver nitrate]
[1]
  inhibition of purified yeast secondary alcohol dehydrogenase activity: inhibited

## CCCCC [n-Pentane, n-pentane]
[2]
  Conversion Rates, n-alkane to corresponding methyl ketone: 0.58 μmoles/hr/mg protein
[3]
  Conversion Rates, n-alkane to corresponding methyl ketone: 0.51 μmoles/hr/mg protein
[4]
  Conversion Rates, n-alkane to corresponding methyl ketone: 0.28 μmoles/hr/mg protein
[5]
  Conversion Rates, n-alkane to corresponding methyl ketone: 0.63 μmoles/hr/mg protein
[6]
  Conversion Rates, n-alkane to corresponding methyl ketone: 0.72 μmoles/hr/mg protein
[7]
  Conversion Rates, n-alkane to corresponding methyl ketone: 0.42 μmoles/hr/mg protein
[8]
  Conversion Rate, n-alkane to corresponding secondary alcohol: 0.032 μmoles/hr/^5 mg. protein
[9]
  Conversion Rate, n-alkane to corresponding secondary alcohol: 0.01 μmoles/hr/^5 mg. protein
[10]
  Conversion Rate, n-alkane to corresponding secondary alcohol: 0.06 μmoles/hr/^5 mg. protein

## N[C@@H](CCC(=O)N[C@@H](CS)C(=O)NCC(=O)O)C(=O)O [GSH, glutathione]
[11]
  effectiveness as cofactor for oxidation of 2-butanol / C3-C6 secondary alcohols: not effective
[1]
  inhibition of purified yeast secondary alcohol dehydrogenase activity: strongly inhibited

## CCCCCC [n-Hexane, n-hexane]
[2]
  Conversion Rates, n-alkane to corresponding methyl ketone: 0.09 μmoles/hr/mg protein
[3]
  Conversion Rates, n-alkane to corresponding methyl ketone: 0.04 μmoles/hr/mg protein
[4]
  Conversion Rates, n-alkane to corresponding methyl ketone: 0.02 μmoles/hr/mg protein
[5]
  Conversion Rates, n-alkane to corresponding methyl ketone: 0.07 μmoles/hr/mg protein
[6]
  Conversion Rates, n-alkane to corresponding methyl ketone: 0.05 μmoles/hr/mg protein
[7]
  Conversion Rates, n-alkane to corresponding methyl ketone: 0.09 μmoles/hr/mg protein
[8]
  Conversion Rate, n-alkane to corresponding secondary alcohol: 0.01 μmoles/hr/^5 mg. protein
[9]
  Conversion Rate, n-alkane to corresponding secondary alcohol: 0.007 μmoles/hr/^5 mg. protein
[10]
  Conversion Rate, n-alkane to corresponding secondary alcohol: 0.01 μmoles/hr/^5 mg. protein

## O=C(O)c1cc[c]([Hg+])cc1.[OH-] [p-hydroxymercuribenzoate]
[12]
  % inhibition of SADH activity: 100%
[1]
  inhibition of purified yeast secondary alcohol dehydrogenase activity: strongly inhibited

## O=S(=O)([O-])[O-].[Cu+2] [cupric sulfate]
[1]
  inhibition of purified yeast secondary alcohol dehydrogenase activity: inhibited

## CCC(C)=O [2-butanone]
[13]; Experiment 2: 20 min., gas chromatographically
  2-Butanone Produced: 520 nmol
[12]
  inhibition of SADH activity: inhibited
[14]; 8 μmoles of 2-butanone added
  further oxidation / degradation of 2-butanone by viable cell suspensions: Some enzymatic degradation; also recorded: slowly disappeared
[14]
  inhibition of production of 2-butanone from 2-butanol by cell suspensions: No product (2-butanone) inhibition was observed; also recorded: did not inhibit

## NC(=O)c1ccc[n+]([C@@H]2O[C@H](COP(=O)([O-])OP(=O)(O)OC[C@H]3O[C@@H](n4cnc5c(N)ncnc54)[C@H](O)[C@@H]3O)[C@@H](O)[C@H]2O)c1 [NAD, Nicotinamide adenine dinucleotide, reference compound]
[13]; Experiment 1: 10 min.
  NAD Consumed: 270 nmol
[13]; Experiment 2: 20 min.
  NAD Consumed: 540 nmol
[15]
  ability to act as electron acceptor/carrier for the purified enzyme: required
[11]
  effectiveness as cofactor for oxidation of 2-butanol / C3-C6 secondary alcohols: required

## c1cnc2c(c1)ccc1cccnc12 [1,10-phenanthroline]
[12]
  % inhibition of SADH activity: 95%
[1]
  inhibition of purified yeast secondary alcohol dehydrogenase activity: strongly inhibited
[16]
  inhibition of conversion of n-alkanes to sec. alcohols (words): inhibited
[14]
  inhibition of production of 2-butanone from 2-butanol by cell suspensions: inhibited

## N#C[S][Hg][S]C#N [mercuric thiocyanate]
[1]
  inhibition of purified yeast secondary alcohol dehydrogenase activity: inhibited
